Data reported in ChEMBL document CHEMBL4138123, “Design, synthesis and biological evaluation of novel pyrazolochalcones as potential modulators of PI3K/Akt/mTOR pathway and inducers of apoptosis in breast cancer cells” (Eur J Med Chem, 2017).

Key:
Format in all cases: functional
Malme-3M [1] = test: Cytotoxicity against human MALME-3M cells assessed as growth inhibition after 48 hrs by sulforhodamine B assay
SF-268 = test: Cytotoxicity against human SF268 cells assessed as cell growth at 0.1 uM after 48 hrs by sulforhodamine B assay relative to control; details: SF-268, 48 h, read-out: Activity
RXF 393 = test: Cytotoxicity against human RXF393 cells assessed as cell growth at 1 uM after 48 hrs by sulforhodamine B assay relative to control; details: RXF 393, 48 h, read-out: Activity
MDA-MB-435 = test: Cytotoxicity against human MDA-MB-435 cells assessed as growth inhibition after 48 hrs by sulforhodamine B assay; details: MDA-MB-435, 48 h
DU-145 [2] = test: Cytotoxicity against human DU145 cells assessed as growth inhibition after 48 hrs by sulforhodamine B assay; details: DU-145, 48 h; for CC50: read-out: LC50 (the source's name)
COLO 205 [3] = test: Cytotoxicity against human COLO205 cells assessed as cell growth at 100 uM after 48 hrs by sulforhodamine B assay relative to control; details: COLO 205, 48 h, read-out: Activity
HOP-62 = test: Cytotoxicity against human HOP62 cells assessed as cell growth at 0.01 uM after 48 hrs by sulforhodamine B assay relative to control; details: HOP-62, 48 h, read-out: Activity
TK-10 [4] = test: Cytotoxicity against human TK10 cells assessed as cell growth at 10 uM after 48 hrs by sulforhodamine B assay relative to control; details: TK-10, 48 h, read-out: Activity
MCF7 = test: Cytotoxicity against human MCF7 cells assessed as cell growth at 0.01 uM after 48 hrs by sulforhodamine B assay relative to control; details: MCF7, 48 h, read-out: Activity
RPMI-8226 = test: Cytotoxicity against human RPMI8226 cells assessed as cell growth at 0.01 uM after 48 hrs by sulforhodamine B assay relative to control; details: RPMI-8226, 48 h, read-out: Activity
NCI-H23 = test: Cytotoxicity against human NCI-H23 cells assessed as cell growth at 10 uM after 48 hrs by sulforhodamine B assay relative to control; details: NCI-H23, 48 h, read-out: Activity
TK-10 [5] = test: Cytotoxicity against human TK10 cells assessed as cell growth at 0.1 uM after 48 hrs by sulforhodamine B assay relative to control; details: TK-10, 48 h, read-out: Activity
MDA-MB-468 = test: Cytotoxicity against human MDA-MB-468 cells assessed as growth inhibition after 48 hrs by sulforhodamine B assay; details: MDA-MB-468, 48 h
OVCAR-3 = test: Cytotoxicity against human OVCAR3 cells assessed as cell growth at 0.01 uM after 48 hrs by sulforhodamine B assay relative to control; details: OVCAR-3, 48 h, read-out: Activity
SK-MEL-28 = test: Cytotoxicity against human SK-MEL-28 cells assessed as cell growth at 0.1 uM after 48 hrs by sulforhodamine B assay relative to control; details: SK-MEL-28, 48 h, read-out: Activity
SK-MEL-5 [6] = test: Cytotoxicity against human SK-MEL-5 cells assessed as cell growth at 0.1 uM after 48 hrs by sulforhodamine B assay relative to control; details: SK-MEL-5, 48 h, read-out: Activity
MDA-MB-231 = test: Cytotoxicity against human MDA-MB-231 cells assessed as cell growth at 1 uM after 48 hrs by sulforhodamine B assay relative to control; details: MDA-MB-231, 48 h, read-out: Activity
T47D = test: Cytotoxicity against human T47D cells assessed as cell growth at 100 uM after 48 hrs by sulforhodamine B assay relative to control; details: read-out: Activity
NCI-H322M [7] = test: Cytotoxicity against human NCI-H322M cells assessed as cell growth at 1 uM after 48 hrs by sulforhodamine B assay relative to control; details: read-out: Activity
DU-145 [8] = test: Cytotoxicity against human DU145 cells assessed as cell growth at 10 uM after 48 hrs by sulforhodamine B assay relative to control; details: DU-145, 48 h, read-out: Activity
NCI-H322M [9] = test: Cytotoxicity against human NCI-H322M cells assessed as growth inhibition after 48 hrs by sulforhodamine B assay; details: for CC50: read-out: LC50 (the source's name)
KM12 [10] = test: Cytotoxicity against human KM12 cells assessed as cell growth at 1 uM after 48 hrs by sulforhodamine B assay relative to control; details: KM12, 48 h, read-out: Activity
786-0 = test: Cytotoxicity against human 786-0 cells assessed as cell growth at 0.01 uM after 48 hrs by sulforhodamine B assay relative to control; details: 786-0, 48 h, read-out: Activity
HCT-116 = test: Cytotoxicity against human HCT116 cells assessed as growth inhibition after 48 hrs by sulforhodamine B assay; details: HCT-116, 48 h
DU-145 [11] = test: Cytotoxicity against human DU145 cells assessed as cell growth at 1 uM after 48 hrs by sulforhodamine B assay relative to control; details: DU-145, 48 h, read-out: Activity
SK-MEL-5 [12] = test: Cytotoxicity against human SK-MEL-5 cells assessed as growth inhibition after 48 hrs by sulforhodamine B assay; details: SK-MEL-5, 48 h
UACC-62 = test: Cytotoxicity against human UACC62 cells assessed as cell growth at 100 uM after 48 hrs by sulforhodamine B assay relative to control; details: UACC-62, 48 h, read-out: Activity
UO-31 = test: Cytotoxicity against human UO31 cells assessed as growth inhibition after 48 hrs by sulforhodamine B assay; details: UO-31, 48 h
COLO 205 [13] = test: Cytotoxicity against human COLO205 cells assessed as cell growth at 1 uM after 48 hrs by sulforhodamine B assay relative to control; details: COLO 205, 48 h, read-out: Activity
NCI-H460 = test: Cytotoxicity against human NCI-H460 cells assessed as cell growth at 0.1 uM after 48 hrs by sulforhodamine B assay relative to control; details: NCI-H460, 48 h, read-out: Activity
Malme-3M [14] = test: Cytotoxicity against human MALME-3M cells assessed as cell growth at 100 uM after 48 hrs by sulforhodamine B assay relative to control; details: read-out: Activity
NCI-H226 = test: Cytotoxicity against human NCI-H226 cells assessed as cell growth at 10 uM after 48 hrs by sulforhodamine B assay relative to control; details: NCI-H226, 48 h, read-out: Activity
KM12 [15] = test: Cytotoxicity against human KM12 cells assessed as cell growth at 0.01 uM after 48 hrs by sulforhodamine B assay relative to control; details: KM12, 48 h, read-out: Activity
NCI-H522 = test: Cytotoxicity against human NCI-H522 cells assessed as growth inhibition after 48 hrs by sulforhodamine B assay; details: NCI-H522, 48 h
CCRF-CEM = test: Cytotoxicity against human CCRF-CEM cells assessed as cell growth at 1 uM after 48 hrs by sulforhodamine B assay relative to control; details: read-out: Activity

Q: Which results are given for COc1ccc(C(=O)/C=C/c2cc(-c3ccc(OC)c(OC)c3)n[nH]2)cc1OC?
A: GI50 (Malme-3M [1]): 2590 nM; TGI (Malme-3M [1]): 6210 nM; growth at 0.1 µM (SF-268): 95%; growth at 1 µM (RXF 393): 76%; GI50 (MDA-MB-435): 1720 nM; GI50 (DU-145 [2]): 1640 nM; TGI (DU-145 [2]): 4800 nM; CC50 (DU-145 [2]): 17400 nM; growth at 100 µM (COLO 205 [3]): -70%; growth at 0.01 µM (HOP-62): 83%; growth at 10 µM (TK-10 [4]): 25%; growth at 0.01 µM (MCF7): 85%; growth at 0.01 µM (RPMI-8226): 98%; growth at 10 µM (NCI-H23): -30%; growth at 0.1 µM (TK-10 [5]): 96%; GI50 (MDA-MB-468): 1090 nM; TGI (MDA-MB-468): 2550 nM; growth at 0.01 µM (OVCAR-3): 107%; growth at 0.1 µM (SK-MEL-28): 95%; growth at 0.1 µM (SK-MEL-5 [6]): 96%; growth at 1 µM (MDA-MB-231): 76%; growth at 100 µM (T47D): -9%; growth at 1 µM (NCI-H322M [7]): 94%; growth at 10 µM (DU-145 [8]): -34%; GI50 (NCI-H322M [9]): 2670 nM; TGI (NCI-H322M [9]): 8230 nM; CC50 (NCI-H322M [9]): > 100000 nM; growth at 1 µM (KM12 [10]): 37%; growth at 0.01 µM (786-0): 92%; GI50 (HCT-116): 369 nM; TGI (HCT-116): 1710 nM; growth at 1 µM (DU-145 [11]): 73%; GI50 (SK-MEL-5 [12]): 1580 nM; TGI (SK-MEL-5 [12]): 2960 nM; growth at 100 µM (UACC-62): -49%; GI50 (UO-31): 1500 nM; TGI (UO-31): 3800 nM; growth at 1 µM (COLO 205 [13]): 82%; growth at 0.1 µM (NCI-H460): 99%; growth at 100 µM (Malme-3M [14]): -11%; growth at 10 µM (NCI-H226): -46%; growth at 0.01 µM (KM12 [15]): 102%; GI50 (NCI-H522): 1690 nM; TGI (NCI-H522): 3900 nM; growth at 1 µM (CCRF-CEM): 15%

Q: COc1cc(-c2cc(/C=C/C(=O)c3ccc(N)cc3)[nH]n2)cc(OC)c1OC was tested. Which GI50 (Malme-3M [1]) did it give?
A: 2050 nM

Q: And the LC50 (Malme-3M [1])?
A: 14400 nM

Q: And the TGI (Malme-3M [1])?
A: 4710 nM

Q: And the growth at 0.1 µM (SF-268)?
A: 106%

Q: What about the growth at 1 µM (RXF 393) of the same molecule?
A: 67%

Q: What about the GI50 (MDA-MB-435) of the same molecule?
A: 1660 nM

Q: What about the LC50 (MDA-MB-435) of the same molecule?
A: 6200 nM

Q: And the TGI (MDA-MB-435)?
A: 3210 nM

Q: And the GI50 (DU-145 [2])?
A: 1650 nM

Q: What about the TGI (DU-145 [2]) of the same molecule?
A: 4050 nM

Q: What about the CC50 (DU-145 [2]) of the same molecule?
A: 9950 nM

Q: What about the growth at 100 µM (COLO 205 [3]) of the same molecule?
A: -78%

Q: What about the growth at 0.01 µM (HOP-62) of the same molecule?
A: 83%

Q: And the growth at 10 µM (TK-10 [4])?
A: 26%

Q: And the growth at 0.01 µM (MCF7)?
A: 89%

Q: What about the growth at 0.01 µM (RPMI-8226) of the same molecule?
A: 98%

Q: And the growth at 10 µM (NCI-H23)?
A: -19%

Q: And the growth at 0.1 µM (TK-10 [5])?
A: 100%

Q: And the GI50 (MDA-MB-468)?
A: 1010 nM

Q: What about the LC50 (MDA-MB-468) of the same molecule?
A: 8420 nM

Q: What about the TGI (MDA-MB-468) of the same molecule?
A: 2910 nM

Q: What about the growth at 0.01 µM (OVCAR-3) of the same molecule?
A: 101%

Q: And the growth at 0.1 µM (SK-MEL-28)?
A: 95%

Q: And the growth at 0.1 µM (SK-MEL-5 [6])?
A: 95%

Q: What about the growth at 1 µM (MDA-MB-231) of the same molecule?
A: 70%

Q: What about the growth at 100 µM (T47D) of the same molecule?
A: -47%

Q: And the growth at 1 µM (NCI-H322M [7])?
A: 94%

Q: And the growth at 10 µM (DU-145 [8])?
A: -50%

Q: And the GI50 (NCI-H322M [9])?
A: 2230 nM

Q: And the TGI (NCI-H322M [9])?
A: 5590 nM

Q: What about the CC50 (NCI-H322M [9]) of the same molecule?
A: 20900 nM

Q: What about the growth at 1 µM (KM12 [10]) of the same molecule?
A: 57%

Q: What about the growth at 0.01 µM (786-0) of the same molecule?
A: 92%

Q: What about the GI50 (HCT-116) of the same molecule?
A: 1100 nM

Q: And the LC50 (HCT-116)?
A: 6190 nM

Q: What about the TGI (HCT-116) of the same molecule?
A: 2610 nM

Q: And the growth at 1 µM (DU-145 [11])?
A: 78%

Q: And the GI50 (SK-MEL-5 [12])?
A: 1650 nM

Q: What about the LC50 (concentration killing 50% of cells) (SK-MEL-5 [12]) of the same molecule?
A: 5690 nM

Q: And the TGI (SK-MEL-5 [12])?
A: 3060 nM

Q: What about the growth at 100 µM (UACC-62) of the same molecule?
A: -92%

Q: What about the GI50 (UO-31) of the same molecule?
A: 1360 nM

Q: What about the LC50 (UO-31) of the same molecule?
A: 6000 nM

Q: What about the TGI (UO-31) of the same molecule?
A: 2860 nM

Q: What about the growth at 1 µM (COLO 205 [13]) of the same molecule?
A: 92%

Q: And the growth at 0.1 µM (NCI-H460)?
A: 102%

Q: And the growth at 100 µM (Malme-3M [14])?
A: -76%

Q: What about the growth at 10 µM (NCI-H226) of the same molecule?
A: -73%

Q: And the growth at 0.01 µM (KM12 [15])?
A: 102%

Q: What about the GI50 (NCI-H522) of the same molecule?
A: 1620 nM

Q: And the LC50 (NCI-H522)?
A: 9810 nM

Q: And the TGI (NCI-H522)?
A: 3990 nM

Q: What about the growth at 1 µM (CCRF-CEM) of the same molecule?
A: 36%
